Results reported in patent US20140171358A1, “ANTIMICROBIAL COMPOSITIONS COMPRISING DGLA AND NEOMYCIN SULFATE AND METHODS OF USE THEREOF” (Dignity Sciences Limited, priority 2012, published 2014).

Assays:
Type in all cases: cell-based
P. acnes = assay: agar dilution method: growth index and MIC on P. acnes (single compounds and combinations)
Method: Several compounds including fatty acids such as DGLA, 15-OHEPA, and 15-HETrE were tested to determine their capacity to inhibit the growth of P. acnes. In an exemplary method, an agar dilution method was used to determine the minimum inhibitory concentration (MIC) of each tested compound. Briefly, the agar dilution method involved preparing a series of concentrations of each compound (e.g., nicotinamide, benzoyl peroxide, adapalene, metronidazole, DGLA, 15-OHEPA, and 15-HETrE) in a Reinforced Clostridial Agar (RCA) media that facilitates growth of P. acnes under anaerobic conditions. An inoculum of P. acnes was prepared by incubation of P. acnes for approximately seven days at 35-37° C. to achieve a ≧1.0 OD600 inoculum of P. acnes in RCM broth. A portion of this inoculum was then added to the surface of each plate as a 10 μL spot and incubated at 35-37° C. for 72 hours or more. Growth of P. acnes was then observed and compared to control plates in which no compound has been added, and positive inhibition plates prepared with erythromycin. […] The growth of P. acnes in the presence of nicotinamide, benzoyl peroxide, adapalene, metronidazole, DGLA, 15-OHEPA, and 15-HETrE was determined with varying concentrations of the compound (see, Table 2). Next, the MIC was determined as the concentration at which a marked reduction (+) occurs in the appearance of growth on the test plate (as per Clinical and Laboratory Standards Institute M11-A7). The compounds tested singly in Example 1 were tested in combination with one another to determine the capacity of the combination to inhibit the growth of P. acnes. In an exemplary method, the MIC was determined for each of the combination as described in Example 1. Briefly, test combinations included DGLA with nicotinamide, benzoyl peroxide, adapalene, or metronidazole; 15-HETrE with nicotinamide, benzoyl peroxide, adapalene, or metronidazole; and 15-OHEPA with nicotinamide, benzoyl peroxide, adapalene, or metronidazole. The tables below show the growth of P. acnes in the presence of 0.4 or 1.0 mg/mL DGLA with varying concentrations of nicotinamide, benzoyl peroxide, adapalene, or metronidazole (Table 3); the growth of P. acnes in the presence of 0.01 or 0.05 mg/mL 15-HETrE with varying concentrations of nicotinamide, benzoyl peroxide, adapalene, or metronidazole (Table 5); and the growth of P. acnes in the presence of 0.5 or 0.1 mg/mL 15-OHEPA with varying concentrations of nicotinamide, benzoyl peroxide, adapalene, or metronidazole (Table 7).

S. aureus = assay: paper disc corrected zone of inhibition (CZOI) on Mueller Hinton agar
Method: (§1) The compounds tested in Example 1 were tested to determine their capacity to inhibit the growth of a variety of Gram-negative bacteria, Gram-positive bactgeria, fungi and yeast. In an exemplary method, Mueller Hinton agar plates were streaked with 500 μL of a 10^5 colony-forming units/mL culture and allowed to dry for at least one minute. A sterile paper disc (6 mm diameter) was then placed in the middle of each plate using sterile forceps. Twenty microliters of a solution of a known concentration of a test compound in filter-sterilized 95% ethanol were pipetted onto each test plate. Two streaked plates served as positive inhibitory controls and contained 6 mm sterile paper discs with standard tetracycline solutions. Two additional plates served as negative inhibition controls and each contained 6 mm sterile paper discs with 20 μL of filter-sterilized 95% ethanol. Two more plates served as positive growth controls and contained no paper disc or added antibacterial agent. The plates were incubated at 32.5±2° C. for 24±4 hours, after which the corrected zone of inhibition (“CZOI”) was determined as follows: For each plate, the length Y2 and width X2 of the test sample (paper disc) and length Y1 and width X1 of the clear zone were measured (FIG. 1). The CZOI was calculated from these values as shown by the equation below: [formula]

E. coli = assay: as above
Method: as §1

A. brasiliensis = assay: as above
Method: as §1

C. striatum = assay: as above
Method: as §1

S. epidermidis = assay: as above
Method: as §1

E. faecalis = assay: as above
Method: as §1

P. aeroginosa = assay: as above
Method: as §1

C. albicans = assay: as above
Method: as §1

K. pneumoniae = assay: as above
Method: as §1

Q: Which results are given for `CCCCC/C=C\C/C=C\C/C=C\CCCCCCC(=O)O` [DGLA, cis-8,11,14-eicosatrienoic acid]?
A: effect on growth of P. acnes on its own (P. acnes; 0.4 mg/ml): no effect on its own; MIC (P. acnes; Cutibacterium acnes, compound alone, read-out: MIC (mg/mL) as per P-11-0007 or P-11-0008 Addendum A): 0.4 to 0.6 mg/mL; Average CZOI (S. aureus; 0.6 mg/mL): 1.25 mm; Average CZOI (S. aureus; 0.8 mg/mL): 3 mm; Average CZOI (S. aureus; 1.0 mg/mL): 3 mm; Average CZOI (S. aureus; 1.2 mg/mL): 3 mm; Average CZOI (S. aureus; 1.4 mg/mL): 2 mm; Lowest Concentration With Observed Inhibition (S. aureus; S. aureus): 0.6 mg/mL; Most Effective Concentration Observed (S. aureus; S. aureus): 0.8 mg/mL; Average CZOI (E. coli; 0.6 mg/mL): 1 mm; Average CZOI (E. coli; 0.8 mg/mL): 1 mm; Average CZOI (E. coli; 1.0 mg/mL): 1.5 mm; Average CZOI (E. coli; 1.2 mg/mL): 0.5 mm; Average CZOI (E. coli; 1.4 mg/mL): 0.25 mm; Lowest Concentration With Observed Inhibition (E. coli; E. coli): 0.6 mg/mL; Most Effective Concentration Observed (E. coli; E. coli): 1.0 mg/mL; Average CZOI (A. brasiliensis; 0.6 mg/mL): 1.5 mm; Average CZOI (A. brasiliensis; 0.8 mg/mL): 4 mm; Average CZOI (A. brasiliensis; 1.0 mg/mL): 2.75 mm; Average CZOI (A. brasiliensis; 1.2 mg/mL): 1.75 mm; Average CZOI (A. brasiliensis; 1.4 mg/mL): 2.25 mm; Lowest Concentration With Observed Inhibition (A. brasiliensis; A. brasiliensis): 0.6 mg/mL; Most Effective Concentration Observed (A. brasiliensis; A. brasiliensis): 0.8 mg/mL; Average CZOI (C. striatum; 0.6 mg/mL): 3.75 mm; Average CZOI (C. striatum; 0.8 mg/mL): 2.75 mm; Average CZOI (C. striatum; 1.0 mg/mL): 2 mm; Average CZOI (C. striatum; 1.2 mg/mL): 4.75 mm; Average CZOI (C. striatum; 1.4 mg/mL): 2.75 mm; Lowest Concentration With Observed Inhibition (C. striatum; C. striatum): 0.6 mg/mL; Most Effective Concentration Observed (C. striatum; C. striatum): 1.2 mg/mL; Average CZOI (S. epidermidis; 0.6 mg/mL): 4.75 mm; Average CZOI (S. epidermidis; 0.8 mg/mL): 3.25 mm; Average CZOI (S. epidermidis; 1.0 mg/mL): 6.5 mm; Average CZOI (S. epidermidis; 1.2 mg/mL): 3 mm; Average CZOI (S. epidermidis; 1.4 mg/mL): 1 mm; Lowest Concentration With Observed Inhibition (S. epidermidis; S. epidermidis): 0.6 mg/mL; Most Effective Concentration Observed (S. epidermidis; S. epidermidis): 1.0 mg/mL; Average CZOI (E. faecalis; 0.6 mg/mL): 3.25 mm; Average CZOI (E. faecalis; 0.8 mg/mL): 3 mm; Average CZOI (E. faecalis; 1.0 mg/mL): 5 mm; Average CZOI (E. faecalis; 1.2 mg/mL): 2 mm; Average CZOI (E. faecalis; 1.4 mg/mL): 1.75 mm; Lowest Concentration With Observed Inhibition (E. faecalis; E. faecalis): 0.6 mg/mL; Most Effective Concentration Observed (E. faecalis; E. faecalis): 1.0 mg/mL; Average CZOI (P. aeroginosa; 0.6 mg/mL): 1 mm; Average CZOI (P. aeroginosa; 0.8 mg/mL): 1 mm; Average CZOI (P. aeroginosa; 1.0 mg/mL): 1 mm; Average CZOI (P. aeroginosa; 1.2 mg/mL): 1 mm; Average CZOI (P. aeroginosa; 1.4 mg/mL): 1 mm; Lowest Concentration With Observed Inhibition (P. aeroginosa; P. aeroginosa): 0.6 mg/mL; Most Effective Concentration Observed (P. aeroginosa; P. aeroginosa): 0.6 mg/mL; Average CZOI (C. albicans; 0.6 mg/mL): 1 mm; Average CZOI (C. albicans; 0.8 mg/mL): 0.75 mm; Average CZOI (C. albicans; 1.0 mg/mL): 1.75 mm; Average CZOI (C. albicans; 1.2 mg/mL): 2 mm; Average CZOI (C. albicans; 1.4 mg/mL): 3 mm; Lowest Concentration With Observed Inhibition (C. albicans; C. albicans): 0.6 mg/mL; Most Effective Concentration Observed (C. albicans; C. albicans): 1.4 mg/mL; Average CZOI (K. pneumoniae; 0.6 mg/mL): 1.75 mm; Average CZOI (K. pneumoniae; 0.8 mg/mL): 2 mm; Average CZOI (K. pneumoniae; 1.0 mg/mL): 2.75 mm; Average CZOI (K. pneumoniae; 1.2 mg/mL): 2 mm; Average CZOI (K. pneumoniae; 1.4 mg/mL): 1.25 mm; Lowest Concentration With Observed Inhibition (K. pneumoniae; K. pneumoniae): 0.6 mg/mL; Most Effective Concentration Observed (K. pneumoniae; K. pneumoniae): 1.0 mg/mL
